Like-named read-outs stand apart in the source and are kept apart here.
Tests used:
recombinant NcCDPK1 = recombinant NcCDPK1 (Neospora caninum, UniProt F0V9W9); assay: biochemical
Method: Protein kinase activity of recombinant NcCDPK1 and inhibition of its kinase phosphorylation properties by BKIs was measured in a non-radioactive assay using Kinase-Glo luciferase reagent (Promega, Madison, WI). This luminescence based assay measures kinase activity in the presence or absence of inhibitors by reporting changes in initial ATP concentration after NcCDPK1 phosphorylation of biotinylated Syntide-2 peptide substrate (Biotin-C6-[…]) (BioSyntide-2) (American Peptide Company, Inc. Sunnyvale, CA), [40]. […] The reaction was initiated by the addition of 10 μM ATP and incubated for 90 minutes at 30°C. Changes in initial ATP concentration was evaluated as a luminescence readout using a MicroBeta2 multi-label plate reader (Perkin Elmer, Waltham, MA).

N. caninum tachyzoites = assay: N. caninum-β-gal tachyzoite proliferation in HFF, 3 days; assay type: cell-based; conditions: Neospora caninum, read-out: EC50 N. caninum
Method: Transgenic N. caninum tachyzoites expressing beta-galactosidase under a constitutive promoter (N. caninum-β-gal) were grown in Vero cells and were separated from host cell components as previously described. Human foreskin fibroblasts (HFF) at 5×10^3 cells per well in phenol-red free culture medium were incubated at 37°C with 5% CO2 and were grown to confluence in a 96-well plate. […] Cultures were infected with N. caninum-β-gal tachyzoites (1×10^3 per well). After three days at 37°C/5% CO2, plates were centrifuged at 500 g, medium was removed, and cell cultures were lysed in PBS containing 0.05% Triton-X-100. After addition of 10 μL of 5 mM chlorophenol red-b-D-galactopyranoside (CPRG; Roche Diagnostics, Rotkreuz, Switzerland) dissolved in PBS, the absorption shift was measured at 570 nm wavelength at various time points on a VersaMax multiplate reader (Bucher Biotec, Basel, Switzerland). The activity, measured as the release of chlorophenol red over time, was proportional to the number of life parasites down to 50 per well as determined in pilot assays. EC50 values were calculated after the logit-log-transformation of relative growth and subsequent regression analysis by the corresponding software tool contained in the Excel software package (Microsoft, Seattle, WA).

T. gondii = conditions: cited from earlier work
Cryptosporidium parvum = test system: Cryptosporidium parvum; parameters: method as in PMID 23878324; conditions: in vitro and in vivo; cited from earlier work
[1] = cited from earlier work
[2] = test system: N. caninum tachyzoites in HFF; assay: Host cell invasion assay, BKI treatment pre- and post-infection (β-galactosidase); assay type: cell-based, Neospora caninum
Method: Control wells with equal volume of DMSO were also included per reaction plate. Two hours after initiating the experiment, the cells were washed. Selected untreated assay plates were treated with 1294 for 60 minutes after the initial wash with medium. All the assay plates were incubated for one hour before a final wash and reading the beta-galactosidase activity.

N. caninum = N. caninum infected Balb/c mice, cerebral parasite load by real time PCR; assay type: in vivo
malaria transmission = test system: malaria transmission; parameters: method as in PMID 24123773; conditions: cited from earlier work
[3] = concentration that inhibits protein kinase activity by 50%, 10 μM ATP, 40 μM BioSyntide-2, 3.3 nM enzyme, read-out: IC50 NcCDPK1
[4] = 72 h, concentration that inhibits cell growth by 50%, tachyzoites in HFF, 3 days

Chain of recombinant NcCDPK1 (F0V9W9 entry or part of it): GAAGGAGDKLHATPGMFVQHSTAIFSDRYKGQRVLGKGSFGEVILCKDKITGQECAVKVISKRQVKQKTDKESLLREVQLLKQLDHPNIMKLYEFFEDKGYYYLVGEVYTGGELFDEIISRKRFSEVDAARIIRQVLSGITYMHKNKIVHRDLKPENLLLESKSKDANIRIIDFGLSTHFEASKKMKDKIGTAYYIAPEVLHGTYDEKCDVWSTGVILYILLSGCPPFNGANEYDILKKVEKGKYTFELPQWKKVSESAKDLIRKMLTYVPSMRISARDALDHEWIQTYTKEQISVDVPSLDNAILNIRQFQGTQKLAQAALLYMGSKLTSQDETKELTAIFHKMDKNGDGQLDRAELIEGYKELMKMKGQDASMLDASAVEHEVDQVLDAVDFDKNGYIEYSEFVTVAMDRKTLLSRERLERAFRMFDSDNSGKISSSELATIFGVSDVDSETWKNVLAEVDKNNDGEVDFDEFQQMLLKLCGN

Compound | IC50 (recombinant NcCDPK1; [3]) [nM] | EC50 (N. caninum tachyzoites; [4]) [nM] | EC50 (T. gondii) [nM] | also measured
CCOc1ccc2cc(-c3nn(CC4CCNCC4)c4ncnc(N)c34)ccc2n1 [16n] | 1.7 | 49 | – | –
CC(C)(C)n1nc(-c2ccc3ccccc3c2)c2c(N)ncnc21 [11b] | 1.7 | 140 | 347 | –
CCOc1ccc2cc(-c3nn(C4CCN(C)CC4)c4ncnc(N)c34)ccc2c1 [15h] | 1.4 | 55 | 50 | –
CCOc1ccc2cc(-c3nn(CC4CCOCC4)c4ncnc(N)c34)ccc2n1 [compound 1412] | 2 | 119 | – | –
CCOc1ccc2cc(-c3nn(CC4CCNCC4)c4ncnc(N)c34)ccc2c1 [15n] | – | 50 | 52 | –
CCOc1ccc2cc(-c3nn(CC4CCN(C)CC4)c4ncnc(N)c34)ccc2c1 [compound 1294] | – | – | 137 | activity against Cryptosporidium parvum cell growth (Cryptosporidium parvum): profound in vitro and in vivo activity; pharmacokinetic data [1]: favorable absorption with low clearance; toxicity in mammalian cells and rodents ([1]; in vivo): low toxicity; beta-galactosidase activity (host cell invasion) ([2]; 5 μM added after the infection phase of 2 hours, p>0.2): no difference; beta-galactosidase activity (host cell invasion) ([2]; 5 μM added at 60, 90 and 115 minutes after initiation of infection): no significant difference; beta-galactosidase activity (host cell invasion) ([2]; 5 μM added at initiation of HFF infection, 2 hours, vs 1266 or DMSO, p<0.001): significant decrease; IC50 (recombinant NcCDPK1): 2.6 nM; cerebral parasite load vs placebo group (N. caninum; group B: 50 mg/kg oral daily from day 3 post infection for 5 days, P = 0.0139): tendency towards reduced parasite load; cerebral parasite load vs placebo group (N. caninum; group C: 50 mg/kg oral daily from day 3 post infection for 10 days, P = 0.0047): clearly the most effective; reduction of cerebral parasite burden compared to untreated control (N. caninum; oral 50 mg/kg for 5 days, established murine neosporosis): 10 fold; EC50 (N. caninum tachyzoites; HFF-3, 72 h): 32 nM; malaria transmission blocking (malaria transmission): excellent malaria transmission blocking properties
CCOc1ccc2cc(-c3nn(C4CCN(CC)CC4)c4ncnc(N)c34)ccc2c1 [15i] | 2.3 | 99 | 90 | –
